Test results as given in US20250333397A1 (REMIX THERAPEUTICS INC., priority 2021, published 2025).
Where two headings read alike, the source gives them in different places.

Columns and labels:
Assay type in all cases: cell-based, human
[1] = tested on: SMN2 mRNA; experiment: RT-qPCR splicing assay panel, SMN2 canonical junction (CJ) mRNA; details: Homo sapiens, canonical junction (CJ) mRNA, RT-qPCR panel, Table 4A; read-out: SMN2, decrease in CJ mRNA levels, IC50
Summary of the method: (§1)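 Cells: A673 (DMEM/10% FBS, plated 24 h before) or K562 (IMDM/10% FBS). Dosing: 11-pt 3-fold series, 10 uM top final, ≤0.25% DMSO, 24 h, 37 °C/5% CO2. Readout: RT-qPCR of CJ and AJ junctions, housekeeper-normalized, RQ = 2^(-ΔΔCt) vs DMSO.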

[2] = tested on: HTT mRNA; experiment: RT-qPCR splicing assay, HTT canonical (CJ) and alternative (AJ) junction mRNA; details: Homo sapiens; for AC50: read-out: HTT AJ (AC50, increase in AJ mRNA)
Summary of the method: as §1

[3] = tested on: MYB mRNA; experiment: RT-qPCR splicing assay, MYB canonical (CJ) and alternative (AJ) junction mRNA; details: Homo sapiens; for AC50: read-out: MYB AJ (AC50, increase in AJ mRNA)
Summary of the method: as §1

[4] = tested on: Target C mRNA; experiment: RT-qPCR splicing assay panel, Target C canonical junction (CJ) mRNA; details: Homo sapiens, canonical junction (CJ) mRNA, RT-qPCR panel, Table 4A; read-out: Target C, decrease in CJ mRNA levels, IC50
Summary of the method: as §1

[5] = 24 h, Table 3A, A673 or K562 cells, 24 h treatment
[6] = 24 h, Table 3A, A673 or K562 cells, 24 h treatment, read-out: HTT CJ (IC50, decrease in CJ mRNA)
[7] = canonical junction (CJ) mRNA, RT-qPCR panel, Table 4A, read-out: HTT, decrease in CJ mRNA levels, IC50
[8] = 24 h, Table 3A, A673 or K562 cells, 24 h treatment, read-out: MYB CJ (IC50, decrease in CJ mRNA)
[9] = canonical junction (CJ) mRNA, RT-qPCR panel, Table 4A, read-out: MYB, decrease in CJ mRNA levels, IC50

IC50 [1] [nM]	IC50 [2, 6] [nM]	IC50 [2, 7] [nM]	IC50 [3, 8] [nM]	IC50 [3, 9] [nM]	IC50 [4] [nM]	Compound	AC50 [2, 5] [nM]	AC50 [3, 5] [nM]
1000 to 10000	> 10000	> 10000	> 10000	> 10000	> 10000	CCOc1cc(-c2ccc(-c3ccc(N4CC[C@@H](NC5CCC5)C4)nn3)c(O)c2)cnn1 [Compound 301]	> 10000	> 10000
100 to 1000	100 to 1000	100 to 1000	> 10000	> 10000	> 10000	COc1cc(-c2ccc(-c3ccc(N4CC[C@H](N(CCF)C5CCC5)C4)nn3)c(O)c2)cnn1 [Compound 303]	100 to 1000	> 10000
1000 to 10000	1000 to 10000	1000 to 10000	1000 to 10000	1000 to 10000	1000 to 10000	COc1cncc(-c2ccc(-c3ccc(N4CC[C@H](NC5CCC5)C4)nn3)c(O)c2)c1 [Compound 304]	1000 to 10000	1000 to 10000
100 to 1000	100 to 1000	100 to 1000	1000 to 10000	1000 to 10000	1000 to 10000	COc1cc(-c2ccc(-c3ccc(N4CCC(NC5CCC5)C4)nn3)c(O)c2)ccn1 (centres unmarked) [Compound 305]	100 to 1000	1000 to 10000
100 to 1000	1000 to 10000	1000 to 10000	1000 to 10000	1000 to 10000	1000 to 10000	Cn1ccc(-c2ccc(-c3ccc(N4CCC(NC5CCC5)C4)nn3)c(O)c2)nc1=O (centres unmarked) [Compound 306]	1000 to 10000	1000 to 10000
1000 to 10000	1000 to 10000	1000 to 10000	> 10000	> 10000	> 10000	COc1cc(-c2ccc(-c3ccc(N4CCC(NC5CCC5)C4)nn3)c(O)c2)c(F)cn1 (centres unmarked) [Compound 307]	1000 to 10000	> 10000
< 100	< 100	< 100	100 to 1000	100 to 1000	100 to 1000	COc1cc(-c2cc(O)c(-c3ccc(N4CCC(C)(NC5CCC5)C4)nn3)cc2F)cnn1 (centres unmarked) [Compound 310, 2-{6-[3-(cyclobutylamino)-3-methylpyrrolidin-1-yl]pyridazin-3-yl}-4-fluoro-5-(6-methoxypyridazin-4-yl)phenol]	100 to 1000	100 to 1000
100 to 1000	100 to 1000	100 to 1000	> 10000	> 10000	> 10000	COc1cc(-c2ccc(-c3ccc(N4CC[C@@H](N(CCF)C5CCC5)C4)nn3)c(O)c2)cnn1 [Compound 313, 2-{6-[(3R)-3-[cyclobutyl(2-fluoroethyl)amino]pyrrolidin-1-yl]pyridazin-3-yl}-5-(6-methoxypyridazin-4-yl)phenol]	1000 to 10000	1000 to 10000
< 100	< 100	< 100	1000 to 10000	1000 to 10000	100 to 1000	CN(C1CCC1)[C@@H]1CCN(c2ccc(-c3cc(F)c(-c4cn[nH]c4)cc3O)nn2)C1 [Compound 314, 2-{6-[(3R)-3-[cyclobutyl(methyl)amino]pyrrolidin-1-yl]pyridazin-3-yl}-4-fluoro-5-(1H-pyrazol-4-yl)phenol]	100 to 1000	100 to 1000
1000 to 10000	1000 to 10000	1000 to 10000	> 10000	> 10000	> 10000	Oc1cc(-n2cnnc2)c(F)cc1-c1ccc(N2CCC(NC3CCC3)C2)nn1 (centres unmarked) [Compound 315]	1000 to 10000	> 10000
100 to 1000	100 to 1000	100 to 1000	1000 to 10000	1000 to 10000	100 to 1000	Cc1nc2ccc(-c3ccc(-c4ccc(N5CCC(NC6CCC6)C5)nn4)c(O)c3)cc2o1 (centres unmarked) [Compound 316]	100 to 1000	100 to 1000
100 to 1000	< 100	< 100	100 to 1000	100 to 1000	100 to 1000	Cc1cn2nc(-c3ccc(-c4ccc(N5CCC(NC6CCC6)C5)nn4)c(O)c3)cc(C)c2n1 (centres unmarked) [Compound 317]	100 to 1000	100 to 1000
100 to 1000	100 to 1000	100 to 1000	1000 to 10000	1000 to 10000	100 to 1000	Cc1cc(-c2ccc(-c3ccc(N4CCC(NC5CCC5)C4)nn3)c(O)c2)cc2cn(C)nc12 (centres unmarked) [Compound 318]	100 to 1000	> 10000
100 to 1000	100 to 1000	100 to 1000	1000 to 10000	1000 to 10000	1000 to 10000	Cn1cc2nc(-c3ccc(-c4ccc(N5CCC(NC6CCC6)C5)nn4)c(O)c3)ccc2n1 (centres unmarked) [Compound 319]	100 to 1000	100 to 1000
< 100	100 to 1000	100 to 1000	100 to 1000	100 to 1000	100 to 1000	Cn1cc2cc(-c3ccc(-c4ccc(N5CCC(NC6CCC6)C5)nn4)c(O)c3)ncc2n1 (centres unmarked) [Compound 320]	100 to 1000	100 to 1000
100 to 1000	100 to 1000	100 to 1000	1000 to 10000	1000 to 10000	100 to 1000	COc1cc(-c2cc(O)c(-c3cnc(N4CC[C@H](NC5CCC5)C4)nn3)cc2F)cnn1 [Compound 321, 2-{3-[(3S)-3-(cyclobutylamino)pyrrolidin-1-yl]-1,2,4-triazin-6-yl}-4-fluoro-5-(6-methoxypyridazin-4-yl)phenol]	100 to 1000	1000 to 10000
< 100	< 100	< 100	< 100	< 100	< 100	Cc1ncc(-c2cc(O)c(-c3ccc(N4CC[C@H](N(C)C(C)(C)C)C4)nn3)cc2F)s1 [Compound 322, 2-{6-[(3S)-3-[tert-butyl(methyl)amino]pyrrolidin-1-yl]pyridazin-3-yl}-4-fluoro-5-(2-methyl-1,3-thiazol-5-yl) phenol]	< 100	< 100
1000 to 10000	1000 to 10000	1000 to 10000	1000 to 10000	1000 to 10000	1000 to 10000	Cc1ccc(-c2ccc(-c3ccc(N4CCC(NC5CCC5)C4)nn3)c(O)c2)o1 (centres unmarked) [Compound 325, 2-{6-[3-(cyclobutylamino)pyrrolidin-1-yl]pyridazin-3-yl}-5-(5-methylfuran-2-yl)phenol]	1000 to 10000	1000 to 10000
< 100	< 100	< 100	100 to 1000	100 to 1000	100 to 1000	Cc1nc2c(F)cc(-c3ccc(-c4ccc(N5CCC(NC6CCC6)C5)nn4)c(O)c3)cc2o1 (centres unmarked) [Compound 326]	100 to 1000	100 to 1000
< 100	100 to 1000	100 to 1000	1000 to 10000	1000 to 10000	1000 to 10000	Cc1cn2cc(-c3ccc(-c4ccc(N5CCC(NC6CCC6)C5)nn4)c(O)c3)ncc2n1 (centres unmarked) [Compound 327]	100 to 1000	100 to 1000
< 100	< 100	< 100	100 to 1000	100 to 1000	100 to 1000	Cn1cc2cc(-c3ccc(-c4ccc(N5CCC(NC6CCC6)C5)nn4)c(O)c3)cc(F)c2n1 (centres unmarked) [Compound 328]	< 100	100 to 1000
< 100	< 100	< 100	100 to 1000	100 to 1000	< 100	Cc1ncc(-c2ccc(-c3ccc(OC4CC(C)(C)NC(C)(C)C4)nn3)c(O)c2)s1 [Compound 329]	< 100	100 to 1000
1000 to 10000	1000 to 10000	1000 to 10000	> 10000	> 10000	> 10000	Cc1ncc(-c2cc(O)c(-c3ccc(N4CCC(CNC(C)(C)C)C4)nn3)cc2F)s1 (centres unmarked) [Compound 333]	> 10000	> 10000
100 to 1000	< 100	< 100	100 to 1000	100 to 1000	100 to 1000	COc1cc(-c2ccc(-c3ccc(N4CCC(NC5CC(F)(F)C5)C4)nn3)c(O)c2)cnn1 (centres unmarked) [Compound 334, 2-(6-(3-((3,3-difluorocyclobutyl)amino)pyrrolidin-1-yl)pyridazin-3-yl)-5-(6-methoxypyridazin-4-yl)phenol]	100 to 1000	1000 to 10000
100 to 1000	< 100	< 100	100 to 1000	100 to 1000	100 to 1000	COc1cc(-c2ccc(-c3ccc(N4CCC(NC56CC(C5)C6)C4)nn3)c(O)c2)cnn1 (centres unmarked) [Compound 335, 2-[6-(3-{bicyclo[1.1.1]pentan-1-ylamino}pyrrolidin-1-yl)pyridazin-3-yl]-5-(6-methoxypyridazin-4-yl)phenol]	100 to 1000	1000 to 10000
